This note sets out measurements from patent publication US8486996B2, “Aroylfuranes and aroylthiophenes” (Basilea Pharmaceutica AG, priority 2006, dated 2013).

The nature of data set [1]: Hoechst 33342 nuclear staining (48 h read-out). Format: cell-based. In short, it runs like this: (§1)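 Adherent cells pre-spread 24 h before dosing, suspension cells dosed at seeding; compounds at 0.001 μM-10 μM final, 48 h at culture conditions. Hoechst 33342 (2-5 μg/ml) added for 30 min, then fluorescence microscopy scoring of apoptotic nuclear fraction and apoptosis-specific morphology, reported as scores A-D.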

For data set [2], the system named is tumor cells. The experiment in a line: Hoechst 33342 nuclear staining (48 h read-out). The format is cell-based. The procedure, abridged:
as §1

Data set [3] in a line: Mitochondrial membrane potential, JC-1 (read-out 48 h). The note with it: PBL, JC-1, 48 h. The format is cell-based. The procedure, abridged: (§2)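 Tumor cells were treated with test compounds (adherent cells after 24 h of attachment, suspension cells immediately), medium holding up to 5% DMSO. After 48 h, JC-1 (2-5 μg/ml in added medium) was applied for 30 min. Fluorescence microscopy (FITC/TRITC filters) scored the fraction of cells with dissipated mitochondrial membrane potential as categories A-D.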

Data set [4] concerns tumor cells. The data set is described as above. Format: cell-based. To be noted: JC-1, 48 h. In short, it runs like this:
as §2

Data set [5] in a line: MTS proliferation assay (72 h read-out). Format: cell-based. The note with it: Homo sapiens, MRC5 cells. The procedure, abridged: (§3)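 Viability was read by MTS absorbance at 492 nm after 3 h with reagent. Before that, cells plated a day earlier at 1.5×10^3–10^4 per well had been incubated with test compound at final concentrations of 0.001–10 μM for 72 h; activity is given as category scores A–D.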
For orientation: Formazan colour is commonly taken as a measure of viable cells.

The subject of data set [6] is tumor cells. Description: MTS proliferation assay (72 h read-out). The format is cell-based. In short, it runs like this: as §3
[7] abbreviates: Homo sapiens, MRC5 cells, read-out: Hoechst 33342 nuclear staining EC50, MRC5.
The mark [8] stands for this setting: PBL, read-out: Hoechst 33342 nuclear staining EC50, PBL.
Where [9] appears, read: Homo sapiens, HeLa cells, read-out: Hoechst 33342 nuclear staining EC50, HeLa.
Where [10] appears, read: Homo sapiens, Jurkat cells, read-out: Hoechst 33342 nuclear staining EC50, Jurkat.
The mark [11] stands for this setting: Jily cells, read-out: Hoechst 33342 nuclear staining EC50, Jily.
Setting [12] is: Homo sapiens, HeLa cells, read-out: Mitochondrial membrane potential (read-out 48 h) HeLa.
The mark [13] stands for this setting: Homo sapiens, Jurkat cells, read-out: Mitochondrial membrane potential (read-out 48 h) Jurkat.
Where [14] appears, read: Homo sapiens, MCF7 cells, read-out: Mitochondrial membrane potential (read-out 48 h) MCF7.
Setting [15] is: Jily cells, read-out: Mitochondrial membrane potential (read-out 48 h) Jily.
The mark [16] stands for this setting: Homo sapiens, HT-1080, HT1080 cells, read-out: MTS proliferation assay IC50, HT1080.
The mark [17] stands for this setting: Homo sapiens, HeLa cells, read-out: MTS proliferation assay IC50, HeLa.
Setting [18] is: Jily cells, read-out: MTS proliferation assay IC50, Jily.
[19] abbreviates: Homo sapiens, Jurkat cells, read-out: MTS proliferation assay IC50, Jurkat.

Molecules are shown by their SMILES. Where two headings read alike, the source gives them in different places.

By melting point is commonly meant the temperature, or range, at which the solid turns liquid. Turning to `CCOc1ccc(N)cc1C(=O)c1oc2ccc(Cl)cc2c1N` [Example 7], the melting point lay within 144 to 146 °C. In addition, the EC50 in data set [1] (setting [7]) was more than 1000 nM. Further, in data set [1] (setting [8]), the EC50 was more than 1000 nM. Moreover, the EC50 in the data set with tumor cells [2] (setting [9]) was 100 to 1000 nM. In the data set with tumor cells [2] (setting [10]), the EC50 was in the range of 100 to 1000 nM. Moreover, the EC50 in the data set with tumor cells [2] (setting [11]) lay within 100 to 1000 nM. The EC50 in data set [3] was more than 1000 nM. Besides, in the data set on tumor cells [4] (setting [12]), the EC50 fell in the range of 100 to 1000 nM. Besides, the EC50 with tumor cells [4] (setting [13]) was 100 to 1000 nM. Moreover, the EC50 with tumor cells [4] (setting [14]) was more than 1000 nM. In the data set on tumor cells [4] (setting [15]), the EC50 fell in the range of 100 to 1000 nM. In addition, the IC50 in data set [5] was more than 1000 nM. In the data set with tumor cells [6] (setting [16]), the IC50 lay in the range of 100 to 1000 nM. Besides, the IC50 in the data set on tumor cells [6] (setting [17]) was 100 to 1000 nM. The IC50 in the data set with tumor cells [6] (setting [18]) lay in the range of 100 to 1000 nM.
`Cc1ccc(OC(C)C)c(C(=O)c2oc3ccc(Cl)cc3c2N)c1` [Example 16] returned a melting point of 110 to 112 °C. For the same compound, the EC50 in data set [1] (setting [7]) lay within 10 to 100 nM. Further, the EC50 in data set [1] (setting [8]) is more than 1000 nM. In addition, the EC50 in the data set with tumor cells [2] (setting [9]) was in the range of 10 to 100 nM. In addition, the EC50 in the data set on tumor cells [2] (setting [10]) was 10 to 100 nM. Moreover, in the data set with tumor cells [2] (setting [11]), the EC50 lay within 10 to 100 nM. For the same compound, the EC50 in data set [3] is more than 1000 nM. The EC50 in the data set on tumor cells [4] (setting [12]) was 10 to 100 nM. Moreover, in the data set on tumor cells [4] (setting [13]), the EC50 lay in the range of 10 to 100 nM. For the same compound, the EC50 in the data set with tumor cells [4] (setting [14]) was 10 to 100 nM. In addition, in the data set with tumor cells [4] (setting [15]), the EC50 fell in the range of 10 to 100 nM. Also, the IC50 in data set [5] is 10 to 100 nM. In the data set with tumor cells [6] (setting [16]), the IC50 was 10 to 100 nM. Also, the IC50 in the data set with tumor cells [6] (setting [17]) fell in the range of 10 to 100 nM. In the data set with tumor cells [6] (setting [19]), the IC50 is less than 10 nM. The IC50 in the data set with tumor cells [6] (setting [18]) is less than 10 nM.
`CCOc1ccc(Cl)cc1C(=O)c1oc2ccc(Cl)cc2c1N` [Example 17]: the melting point was in the range of 140 to 142 °C. Also, in data set [1] (setting [7]), the EC50 was 10 to 100 nM. The EC50 in data set [1] (setting [8]) was more than 1000 nM. Also, the EC50 in the data set on tumor cells [2] (setting [9]) was in the range of 10 to 100 nM. For the same compound, the EC50 in the data set with tumor cells [2] (setting [10]) fell in the range of 10 to 100 nM. Further, the EC50 in the data set on tumor cells [2] (setting [11]) was in the range of 10 to 100 nM. In addition, the EC50 in data set [3] is more than 1000 nM. In addition, the EC50 in the data set with tumor cells [4] (setting [12]) was in the range of 10 to 100 nM. Further, the EC50 in the data set on tumor cells [4] (setting [13]) was in the range of 10 to 100 nM. Also, in the data set on tumor cells [4] (setting [14]), the EC50 lay in the range of 10 to 100 nM. Further, in the data set with tumor cells [4] (setting [15]), the EC50 lay within 10 to 100 nM. Also, the IC50 in data set [5] is less than 10 nM. In addition, the IC50 in the data set with tumor cells [6] (setting [16]) is less than 10 nM. In addition, the IC50 in the data set with tumor cells [6] (setting [17]) was 10 to 100 nM. The IC50 in the data set with tumor cells [6] (setting [19]) was less than 10 nM. The IC50 in the data set on tumor cells [6] (setting [18]) is less than 10 nM.
In turn, `CCOc1ccc(C(=O)OC)cc1C(=O)c1oc2ccc(Cl)cc2c1N` [Example 20] registered a melting point of 136 to 138 °C. In data set [1] (setting [7]), the EC50 was more than 1000 nM. In addition, the EC50 in data set [1] (setting [8]) is more than 1000 nM. In the data set with tumor cells [2] (setting [9]), the EC50 was in the range of 100 to 1000 nM. Moreover, the EC50 with tumor cells [2] (setting [10]) lay within 10 to 100 nM. In addition, the EC50 in the data set on tumor cells [2] (setting [11]) was in the range of 10 to 100 nM. Besides, the EC50 in data set [3] is more than 1000 nM. The EC50 in the data set with tumor cells [4] (setting [12]) fell in the range of 100 to 1000 nM. Also, the EC50 in the data set on tumor cells [4] (setting [13]) lay within 10 to 100 nM. Moreover, the EC50 with tumor cells [4] (setting [14]) lay in the range of 100 to 1000 nM. Also, in the data set with tumor cells [4] (setting [15]), the EC50 lay within 10 to 100 nM. For the same compound, in the data set on tumor cells [6] (setting [16]), the IC50 was in the range of 10 to 100 nM. Also, in the data set with tumor cells [6] (setting [17]), the IC50 fell in the range of 100 to 1000 nM. Moreover, the IC50 in the data set on tumor cells [6] (setting [19]) lay in the range of 10 to 100 nM. The IC50 in the data set with tumor cells [6] (setting [18]) was in the range of 10 to 100 nM.
As to `CCOc1ccc(NC(C)=O)cc1C(=O)c1oc2ccc(Cl)cc2c1N` [Example 21], the melting point lay in the range of 110 to 112 °C. Besides, in data set [1] (setting [7]), the EC50 was more than 1000 nM. The EC50 in data set [1] (setting [8]) is more than 1000 nM. The EC50 in the data set with tumor cells [2] (setting [9]) was more than 1000 nM. The EC50 in the data set on tumor cells [2] (setting [10]) was more than 1000 nM. Also, the EC50 in the data set on tumor cells [2] (setting [11]) was more than 1000 nM. Also, the EC50 in data set [3] was more than 1000 nM. The EC50 in the data set on tumor cells [4] (setting [12]) was more than 1000 nM. In the data set with tumor cells [4] (setting [13]), the EC50 is more than 1000 nM. Besides, the EC50 with tumor cells [4] (setting [14]) is more than 1000 nM. Moreover, in the data set with tumor cells [4] (setting [15]), the EC50 was more than 1000 nM. The IC50 in data set [5] is more than 1000 nM. Also, the IC50 in the data set on tumor cells [6] (setting [16]) was more than 1000 nM. The IC50 with tumor cells [6] (setting [17]) is more than 1000 nM. In addition, the IC50 in the data set on tumor cells [6] (setting [19]) was more than 1000 nM. Also, in the data set with tumor cells [6] (setting [18]), the IC50 is more than 1000 nM.
